From US7728146B2, “Enzyme inhibitors” (Probiodrug AG, priority 2006, dated 2010)

The molecules below were run against DP IV (Homo sapiens, UniProt P27487) (assay: DP IV inhibition IC50, parallel-synthesis compounds tested directly following synthesis (without purification)). Settings: DP IV inhibition; compounds of formula (Ib) from parallel synthesis, tested directly following synthesis (without purification); read-out: IC50.
Assay type: biochemical
Design: IC50 DP4; other: tested directly following parallel synthesis, without purification; compounds of formula (Ib) from parallel synthesis, tested directly following synthesis
Method in brief: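 Porcine kidney or recombinant human enzyme (~40-50 μU/ml, HEPES buffer) hydrolysing Gly-Pro-pNA at room temperature, with 5% DMSO final; 11-point 1:2 dilutions from 100 μM final, in duplicate. pNA release read at 405 nm over ~18 min; slopes vs solvent control give residual activity, and IC50 comes from a 4-parameter fit.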

| IC50 [µM] | SMILES |
| --- | --- |
| 24.4 | NCc1c(-c2ccc(Cl)cc2Cl)ncn1CCc1ccccn1 [85b, C-[5-(2,4-Dichloro-phenyl)-3-(2-pyridin-2-yl-ethyl)-3H-imidazol-4-yl]-methylamine] |
| 40.6 | CCCCCCn1cnc(-c2ccc(Cl)cc2Cl)c1C(C)N (stereo not drawn) [61b, 1-[5-(2,4-Dichloro-phenyl)-3-hexyl-3H-imidazol-4-yl]-ethylamine] |
| 28 | CC(N)c1c(-c2ccc(Cl)cc2Cl)ncn1CCCCc1ccccc1 (stereo not drawn) [106b, 1-[5-(2,4-Dichloro-phenyl)-3-(4-phenyl-butyl)-3H-imidazol-4-yl]-ethylamine] |
| 20.8 | NCc1c(-c2ccc(Cl)cc2Cl)ncn1CCOCCO [18b, 2-{2-[5-Aminomethyl-4-(2,4-dichloro-phenyl)-imidazol-1-yl]-ethoxy}-ethanol] |
| 23.5 | NCc1c(-c2ccc(Cl)cc2Cl)ncn1Cc1ccc(-c2ccccc2)cc1 [75b, C-[3-Biphenyl-4-ylmethyl-5-(2,4-dichloro-phenyl)-3H-imidazol-4-yl]-methylamine] |
| 7.3 | NCc1c(-c2ccc(Cl)cc2Cl)ncn1CCCCc1ccccc1 [42b, C-[5-(2,4-Dichloro-phenyl)-3-(4-phenyl-butyl)-3H-imidazol-4-yl]-methylamine] |
| 14.5 | CC(N)c1c(-c2ccc(Cl)cc2Cl)ncn1Cc1ccccn1 (stereo not drawn) [96b, 1-[5-(2,4-Dichloro-phenyl)-3-pyridin-2-ylmethyl-3H-imidazol-4-yl]-ethylamine] |

The next lines start with the molecule.

| SMILES | IC50 [µM] |
| --- | --- |
| NCc1c(-c2ccc(Cl)cc2Cl)ncn1Cc1cccc(C(F)(F)F)c1 [89b, C-[5-(2,4-Dichloro-phenyl)-3-(3-trifluoromethyl-benzyl)-3H-imidazol-4-yl]-methylamine] | 1.9 |
| CCCn1cnc(-c2ccc(Cl)cc2Cl)c1CN [86b, C-[5-(2,4-Dichloro-phenyl)-3-propyl-3H-imidazol-4-yl]-methylamine] | 17.2 |
| NCc1c(-c2ccc(Cl)cc2Cl)ncn1CCc1ccc(Br)cc1 [49b, C-[3-[2-(4-Bromo-phenyl)-ethyl]-5-(2,4-dichloro-phenyl)-3H-imidazol-4-yl]-methylamine] | 9.1 |
| NCc1c(-c2ccc(Cl)cc2Cl)ncn1Cc1c(F)cccc1Cl [123b, C-[3-(2-Chloro-6-fluoro-benzyl)-5-(2,4-dichloro-phenyl)-3H-imidazol-4-yl]-methylamine] | 1.9 |
| COc1ccc(CCn2cnc(-c3ccc(Cl)cc3Cl)c2CN)cc1 [45b, C-{5-(2,4-Dichloro-phenyl)-3-[2-(4-methoxy-phenyl)-ethyl]-3H-imidazol-4-yl}-methylamine] | 27.1 |
| CC(N)c1c(-c2ccc(Cl)cc2Cl)ncn1Cc1ccccc1 (stereo not drawn) [109b, 1-[3-Benzyl-5-(2,4-dichloro-phenyl)-3H-imidazol-4-yl]-ethylamine] | 7.3 |
| C[C@H](N)c1c(-c2ccc(Cl)cc2Cl)ncn1CCc1c[nH]c2cc(Cl)ccc12 [101b, (S)-1-[3-[2-(6-Chloro-1H-indol-3-yl)-ethyl]-5-(2,4-dichloro-phenyl)-3H-imidazol-4-yl]-ethylamine] | 47.8 |
| CCNCCn1cnc(-c2ccc(Cl)cc2Cl)c1CN [69b, {2-[5-Aminomethyl-4-(2,4-dichloro-phenyl)-imidazol-1-yl]-ethyl}-ethyl-amine] | 19 |
| CC(N)c1c(-c2ccc(Cl)cc2Cl)ncn1CCN1CCOCC1 (stereo not drawn) [118b, 1-[5-(2,4-Dichloro-phenyl)-3-(2-morpholin-4-yl-ethyl)-3H-imidazol-4-yl]-ethylamine] | 49.6 |

Same assay, conditions: tested directly following parallel synthesis, without purification; read-out: IC50 DP4

| IC50 [µM] | SMILES |
| --- | --- |
| 32.5 | NCc1c(-c2ccc(F)cc2Cl)ncn1Cc1cc(Br)ccc1F [Example 12a, C-[3-(5-Bromo-2-fluoro-benzyl)-5-(2-chloro-4-fluoro-phenyl)-3H-imid-azol-4-yl]-methyl-amine] |
| 2.8 | NCc1c(-c2ccc(Cl)cc2Cl)ncn1Cc1c(Cl)cccc1Cl [Example 60a, C-[3-(2,6-Dichloro-benzyl)-5-(2,4-dichloro-phenyl)-3H-imid-azol-4-yl]-methyl-amine] |
| 46 | NCc1c(-c2ccc(F)cc2F)ncn1Cc1cccc(F)c1 [Example 78a, C-[5-(2,4-Difluoro-phenyl)-3-(3-fluoro-benzyl)-3H-imid-azol-4-yl]-methyl-amine] |
| 33.4 | NCc1c(-c2ccc(F)cc2Cl)ncn1Cc1ccc(Cl)c(Cl)c1 [Example 25a, C-[5-(2-Chloro-4-fluoro-phenyl)-3-(3,4-di-chloro-benzyl)-3H-imid-azol-4-yl]-methyl-amine] |
| 5.5 | NCc1c(-c2ccc(F)cc2Cl)ncn1Cc1ccccc1OC(F)(F)F [Example 23a, C-[5-(2-Chloro-4-fluoro-phenyl)-3-(2-tri-fluoromethoxy-benzyl)-3H-imid-azl-4-yl]-methyl-amine] |

The remaining lines, values behind:

| SMILES | IC50 [µM] |
| --- | --- |
| NCc1c(-c2ccc(Cl)cc2Cl)ncn1Cc1ccccc1F [Example 62a, C-[5-(2,4-Dichloro-phenyl)-3-(2-fluoro-benzyl)-3H-imid-azol-4-yl]-methyl-amine] | 0.1 |
| Cc1ccc(-c2ncn(Cc3ccsc3)c2CN)c(C)c1 [Example 67a, C-[5-(2,4-Dimethyl-phenyl)-3-thio-phen-3-yl-methyl-3H-imid-azol-4-yl]-methyl-amine] | 42.4 |
| NCc1c(-c2ccc(Cl)cc2Cl)ncn1Cc1cccnc1 [Example 66a, C-[5-(2,4-Dichloro-phenyl)-3-pyri-din-3-yl-methyl-3H-imid-azol-4-yl]-methyl-amine] | 0.1 |
| NCc1c(-c2ccc(Cl)cc2Cl)ncn1Cc1ccccc1Cl [Example 34a, C-[3-(2-Chloro-benzyl)-5-(2,4-di-chloro-phenyl)-3H-imid-azol-4-yl]-methyl-amine] | 1 |
| NCc1c(-c2ccc(F)cc2Cl)ncn1Cc1ccc2c(c1)OCO2 [Example 16a, C-[3-Ben-zo[1,3]di-oxol-5-yl-methyl-5-(2-chlo-ro-4-fluoro-phenyl)-3H-imid-azol-4-yl]-methyl-amine] | 28 |
| NCc1c(-c2ccc(Cl)cc2Cl)ncn1Cc1cc(F)ccc1F [Example 61a, C-[5-(2,4-Dichloro-phenyl)-3-(2,5-difluoro-benzyl)-3H-imid-azol-4-yl]-methyl-amine] | 1.9 |
| CC(C)(C)Cn1cnc(-c2ccc(Cl)cc2Cl)c1CN [Example 53a, C-[5-(2,4-Dichloro-phenyl)-3-(2,2-dimethyl-propyl)-3H-imid-azol-4-yl]-methyl-amine] | 1 |
| CCOc1ccccc1Cn1cnc(-c2ccc(F)cc2Cl)c1CN [Example 18a, C-[5-(2-Chloro-4-fluoro-phenyl)-3-(2-ethoxy-benzyl)-3H-imidazol-4-yl]-methylamine] | 6.4 |
| NCc1c(-c2ccc(Cl)cc2Cl)ncn1Cc1c(F)cccc1Cl [Example 45a, C-[3-(2-Chloro-6-fluoro-benzyl)-5-(2,4-dichloro-phenyl)-3H-imid-azol-4-yl]-methyl-amine] | 1.9 |
| NCc1c(-c2ccc(Cl)cc2Cl)ncn1Cc1ccco1 [Example 33a, C-[5-(2,4-Dichloro-phenyl)-3-furan-2-ylmethyl-3H-imidazol-4-yl]-methylamine] | 0.1 |
| NCc1c(-c2ccc(Cl)cc2Cl)ncn1Cc1ccsc1 [Example 43a, C-[5-(2,4-Dichloro-phenyl)-3-thio-phen-3-yl-methyl-3H-imid-azol-4-yl]-methyl-amine] | 0.1 |
| NCc1c(-c2ccc(F)cc2Cl)ncn1Cc1cccs1 [Example 1a, C-[5-(2-Chloro-4-fluoro-phenyl)-3-thio-phen-2-yl-methyl-3H-imid-azol-4-yl]-methyl-amine] | 11.8 |
